Experimental data: patent publication US9084782B2, “Chemical inhibitors of cholesterol biosynthesis and venous angiogenesis” (The Regents of the University of California, priority 2011, dated 2015)

System: HMGCR pathway
Experiment: Quantitative RT-PCR of aplexone-treated embryos
Type: in vivo, zebrafish
Details: qPCR, GAPDH-normalized
Description: Embryos at the 5-somite stage were treated with 0.4% DMSO (control) or 10 μM of aplexone in 0.4% DMSO and total RNA was isolated using the RNAeasy micro kit (Qiagen) at 30 hpf. Microarray analysis was performed in triplicate using the Affymetrix Zebrafish GeneChip, representing 15,617 genes. Synthesis and labeling of antisense RNA was performed as recommended by the array manufacturer using kits from Invitrogen for double-stranded cDNA synthesis, Enzo Life Sciences for transcription and labeling of antisense RNA and Affymetrix for probe purification and hybridization controls. Microarray hybridization data were analyzed using scripts written in the statistical programming language R (Team, 2009). Differentially expressed genes (DEGs) were identified using a linear model and multiple testing correction from the limma package (Smyth, 2004). The expression values were obtained using the robust multi array algorithm (Irizarry et al., 2003).
Quantitative RT-PCR was performed as follows. First strand cDNA was synthesized using the SuperScript™ first-strand synthesis system for RT-PCR (Invitrogen) and relative expression levels of genes were determined using iQ SYBR Green Supermix and an iCycler (Bio-Rad Laboratories). GAPDH was used for normalization.

Which “fold change 3-hydroxy-3-methylglutaryl-Coenzyme A reductase (HMGCR)” value does the source give for CC(=O)C1=CCC(c2ccccc2)N(S(=O)(=O)c2ccc(C)cc2)C1 (stereo not shown) [aplexone] here?
Its value is 6.7 fold.

And the “fold change 3-hydroxy-3-methylglutaryl-Coenzyme A synthase 1 (HMGCS)” value?
Its value is 2.8 fold.

What about the “fold change 7-dehydrocholesterol reductase (DHCR7)” value of the same molecule?
Its value is 2.5 fold.

What about the “fold change cytochrome P450, family 51 (CYP51)” value of the same molecule?
Its value is 4.4 fold.

What about the “fold change farnesyl diphosphate synthetase (FDPS)” value of the same molecule?
Its value is 2.2 fold.

And the “fold change insulin induced gene 1 (INSIG)” value?
Its value is 5.1 fold.

What about the “fold change sterol-C4-methyl oxidase-like (SC4MOL)” value of the same molecule?
Its value is 5.6 fold.
